Results reported in the NIST ThermoML archive (doi:10.1016/j.jct.2017.03.016).

Experiments:
[1] = refractive index (Na D-line) (dimensionless); conditions: 101.33 kPa, Liquid, Standard Abbe refractometry
[2] = for surface tension liquid-gas: Maximal bubble pressure; for mass density: 101.33 kPa, Liquid, Vibrating tube method

CCn1cc[n+](CCOC)c1.N#C[N-]C#N [1-ethyl-3-(2-methoxyethyl)imidazolium dicyanamide]
Conditions | mass density, [2] [kg/m3] | refractive index, [1] | surface tension liquid-gas, [2] [mN/m]
298.15 K | 1113.6 | 1.5053 | 51
303.15 K | 1110.21 | 1.504 | 50.7
308.15 K | 1106.83 | 1.5028 | 50.4
313.15 K | 1103.48 | 1.5017 | 50.1
318.15 K | 1100.15 | 1.5 | 49.8
323.15 K | 1096.84 | 1.4989 | 49.5
328.15 K | 1093.53 | 1.4977 | 49.3
333.15 K | 1090.26 | 1.496 | 49.1
338.15 K | 1087 | 1.4946 | 48.8
